According to ChEMBL document CHEMBL4266017, “Colony-wise Analysis of a Theonella swinhoei Marine Sponge with a Yellow Interior Permitted the Isolation of Theonellamide I” (J Nat Prod, 2018):

Test system: HeLa
Assay: Cytotoxicity against human HeLa cells assessed as decrease in cell viability after 72 hrs by XTT assay
Format: functional, cell-based

## CC(/C=C/c1ccccc1)=C\[C@H](O)[C@@H]1CC(=O)N[C@@H](CO)C(=O)N[C@H]2C[n+]3cc(n([C@@H]4OC[C@H](O)[C@H](O)[C@H]4O)c3)C[C@H](NC(=O)CCC[C@@H](C(=O)[O-])NC(=O)[C@@H](O)CNC(=O)[C@H](Cc3ccc(Br)cc3)NC(=O)[C@H]([C@@H](O)C(N)=O)NC(=O)[C@H](CC(N)=O)NC2=O)C(=O)N[C@@H]([C@H](C)O)C(=O)N[C@@H](CO)C(=O)N[C@@H](Cc2ccccc2)C(=O)N1
  IC50: 1900 nM
